Patent US20200015481A1, “SYNERGISTIC WEED CONTROL FROM APPLICATIONS OF PYRIDINE CARBOXYLIC ACID HERBICIDES AND PHOTOSYSTEM II INHIBITORS” (Dow AgroSciences, LLC, priority 2014, published 2020)

Tests used:
[1] = tested on: poinsettia (Euphorbia heterophylla, EPHHL); experiment: Postemergence herbicidal activity, greenhouse (Example 3); assay type: in vivo
Excerpt: (§1) Compound 1 was formulated as an EC and combined with bentazon, isoproturon, metribuzin and atrazine.

[2] = tested on: wild pansy (VIOTR, Viola tricolor); experiment: as above; assay type: in vivo
Excerpt: as §1

[3] = tested on: ivy-leaved speedwell (VERHE, Veronica hederifolia); experiment: as above; assay type: in vivo
Excerpt: as §1

[4] = tested on: pigweed (Amaranthus retroflexus, AMARE); experiment: as above; assay type: in vivo
Excerpt: as §1

winter wheat (TRZAW) [5] = experiment: Postemergence crop phytotoxicity, greenhouse (Example 3); assay type: in vivo, Triticum aestivum; conditions: 20-22 d
Excerpt: as §1

[6] = tested on: rape (Brassica napus, BRSNN); experiment: Postemergence herbicidal activity, greenhouse (Example 3); assay type: in vivo
Excerpt: as §1

[7] = tested on: thistle (Cirsium arvense, CIRAR); experiment: as above; assay type: in vivo
Excerpt: as §1

[8] = tested on: nutsedge (Cyperus esculentus, CYPES); experiment: as above; assay type: in vivo
Excerpt: as §1

[9] = tested on: large crabgrass (Digitaria sanguinalis, DIGSA); experiment: as above; assay type: in vivo
Excerpt: as §1

[10] = tested on: barnyardgrass (Echinochloa crus-galli, ECHCG); experiment: as above; assay type: in vivo
Excerpt: as §1

[11] = tested on: velvetleaf (Abutilon theophrasti, ABUTH); experiment: as above; assay type: in vivo
Excerpt: as §1

corn (ZEAMX) = experiment: Postemergence crop phytotoxicity, greenhouse (Example 3); assay type: in vivo, Zea mays; conditions: 20-22 d
Excerpt: as §1

winter wheat (TRZAW) [12] = experiment: Postemergence crop phytotoxicity, greenhouse (Example 2)
Experimental: (§2) Stocks solutions of the compound mixtures were prepared following the same procedure.

maize (ZEAMX) = experiment: as above
Experimental: as §2

[13] = tested on: pigweed (AMARE, Amaranthus retroflexus); experiment: Postemergence herbicidal activity, greenhouse (Example 1); conditions: 20-22 d
winter wheat (TRZAW) [14] = experiment: Postemergence crop phytotoxicity, greenhouse (Example 1); conditions: 20-22 d
[15] = tested on: ivyleaf morningglory (Ipomoea hederacea, IPOHE); experiment: Postemergence herbicidal activity, greenhouse (Example 2); assay type: in vivo; conditions: 20-22 d
Experimental: as §2

[16] = tested on: poinsettia (Euphorbia heterophylla, EPHHL); experiment: as above; assay type: in vivo; conditions: 20-22 d
Experimental: as §2

[17] = tested on: pigweed (AMARE, Amaranthus retroflexus); experiment: as above; assay type: in vivo; conditions: 20-22 d
Experimental: as §2

[18] = tested on: nutsedge (Cyperus esculentus, CYPES); experiment: as above; assay type: in vivo; conditions: 20-22 d
Experimental: as §2

[19] = tested on: thistle (CIRAR, Cirsium arvense); experiment: Postemergence herbicidal activity, greenhouse (Example 1); conditions: 20-22 d
spring barley (HORVS) = experiment: Postemergence crop phytotoxicity, greenhouse (Example 1); conditions: Bromoxynil 70 g ai/ha, 20-22 d
[20] = tested on: common sunflower (Helianthus annuus, HELAN); experiment: Postemergence herbicidal activity, greenhouse (Example 3); assay type: in vivo
Excerpt: as §1

rice (ORYSA) = experiment: Postemergence crop phytotoxicity, greenhouse (Example 3); assay type: in vivo, Oryza sativa
Excerpt: as §1

[21] = Compound 1 5 g ae/ha, 20-22 d (Tables 4-6)
[22] = Compound 1 5 g ae/ha, 20-22 d (Table 7)
[23] = Isoproturon 150 g ai/ha, 20-22 d

CCNc1nc(Cl)nc(NC(C)C)n1 [Atrazine]
Effect (% visual injury) Obs ([1]; Atrazine 450 g ai/ha, 20-22 d): 0% | Effect (% visual injury) Obs ([2]; Atrazine 450 g ai/ha, 20-22 d): 5% | Effect (% visual injury) Obs ([3]; Atrazine 450 g ai/ha, 20-22 d): 45% | Effect (% visual injury) Obs ([4]; Atrazine 450 g ai/ha, 20-22 d): 50%

CC(C)N1C(=O)c2ccccc2NS1(=O)=O [Bentazon]
Effect (% visual injury) Obs (winter wheat (TRZAW) [5]; Bentazon 60 g ai/ha): 0% | Effect (% visual injury) Obs ([1]; Bentazon 60 g ai/ha, 20-22 d): 0% | Effect (% visual injury) Obs ([6]; Bentazon 60 g ai/ha, 20-22 d): 20% | Effect (% visual injury) Obs ([7]; Bentazon 60 g ai/ha, 20-22 d): 0% | Effect (% visual injury) Obs ([8]; Bentazon 60 g ai/ha, 20-22 d): 0% | Effect (% visual injury) Obs ([9]; Bentazon 60 g ai/ha, 20-22 d): 0% | Effect (% visual injury) Obs ([10]; Bentazon 60 g ai/ha, 20-22 d): 0% | Effect (% visual injury) Obs ([11]; Bentazon 60 g ai/ha, 20-22 d): 0% | Effect (% visual injury) Obs ([4]; Bentazon 60 g ai/ha, 20-22 d): 10% | Effect (% visual injury) Obs (corn (ZEAMX); Bentazon 60 g ai/ha): 0%

N#Cc1cc(Br)c(O)c(Br)c1 [Bromoxynil]
Effect (% visual injury) Obs (winter wheat (TRZAW) [12]; TRZAW, Bromoxynil 70 g ai/ha, postemergence, 20-22 d): 0% | Effect (% visual injury) Obs (maize (ZEAMX); ZEAMX, Bromoxynil 70 g ai/ha, postemergence, 20-22 d): 0% | Effect (% visual injury) Obs ([13]; Bromoxynil 140 g ai/ha): 0% | Effect (% visual injury) Obs (winter wheat (TRZAW) [14]; Bromoxynil 70 g ai/ha): 0% | Effect (% visual injury) Obs (winter wheat (TRZAW) [14]; Bromoxynil 140 g ai/ha): 0% | Effect (% visual injury) Obs ([15]; Bromoxynil 70 g ai/ha): 25% | Effect (% visual injury) Obs ([16]; Bromoxynil 70 g ai/ha): 5% | Effect (% visual injury) Obs ([17]; Bromoxynil 70 g ai/ha): 20% | Effect (% visual injury) Obs ([18]; Bromoxynil 70 g ai/ha): 0% | Effect (% visual injury) Obs ([19]; Bromoxynil 70 g ai/ha): 40% | Effect (% visual injury) Obs (spring barley (HORVS)): 0%

Nc1c(F)c(-c2ccc3cc[nH]c3c2F)nc(C(=O)O)c1Cl [Compound 1]
Effect (% visual injury) Obs [20, 21]: 97% | Effect (% visual injury) Obs [1, 22]: 97% | Effect (% visual injury) Obs [1, 21]: 97% | Effect (% visual injury) Obs [6, 21]: 50% | Effect (% visual injury) Obs [7, 21]: 20% | Effect (% visual injury) Obs [2, 22]: 5% | Effect (% visual injury) Obs [2, 21]: 10% | Effect (% visual injury) Obs [8, 21]: 10% | Effect (% visual injury) Obs [9, 21]: 0% | Effect (% visual injury) Obs [3, 22]: 40% | Effect (% visual injury) Obs [10, 21]: 60% | Effect (% visual injury) Obs [11, 21]: 10% | Effect (% visual injury) Obs [4, 22]: 65% | Effect (% visual injury) Obs [4, 21]: 93% | Effect (% visual injury) Obs (rice (ORYSA); Oryza sativa (rice), in vivo): 0%

Nc1c(F)c(-c2ccc3cc[nH]c3c2F)nc(C(=O)OCc2ccccc2)c1Cl [Compound 2]
Effect (% visual injury) Obs (winter wheat (TRZAW) [12]; Triticum aestivum (winter wheat), in vivo): 3% | Effect (% visual injury) Obs (maize (ZEAMX); Zea mays (maize), in vivo): 3% | Effect (% visual injury) Obs ([15]; Compound 2 5 g ae/ha): 10% | Effect (% visual injury) Obs ([15]; Compound 2 10 g ae/ha): 20% | Effect (% visual injury) Obs ([16]; Compound 2 5 g ae/ha): 35% | Effect (% visual injury) Obs ([16]; Compound 2 10 g ae/ha): 75% | Effect (% visual injury) Obs ([17]; Compound 2 5 g ae/ha): 88% | Effect (% visual injury) Obs ([17]; Compound 2 10 g ae/ha): 100% | Effect (% visual injury) Obs ([18]; Compound 2 5 g ae/ha): 5% | Effect (% visual injury) Obs ([18]; Compound 2 10 g ae/ha): 10%

Nc1c(F)c(-c2ccc3cc[nH]c3c2F)nc(C(=O)[O-])c1Cl.[K+] [Compound 7]
Effect (% visual injury) Obs ([13]; Compound 7 8.75 g ae/ha): 70% | Effect (% visual injury) Obs ([19]; Compound 7 5 g ae/ha): 50% | Effect (% visual injury) Obs ([19]; Compound 7 10 g ae/ha): 65%

CC(C)c1ccc(NC(=O)N(C)C)cc1 [Isoproturon]
Effect (% visual injury) Obs [20, 23]: 0% | Effect (% visual injury) Obs [6, 23]: 0% | Effect (% visual injury) Obs [7, 23]: 10% | Effect (% visual injury) Obs [2, 23]: 0% | Effect (% visual injury) Obs [8, 23]: 0% | Effect (% visual injury) Obs [10, 23]: 0%

CSc1nnc(C(C)(C)C)c(=O)n1N [Metribuzin]
Effect (% visual injury) Obs (winter wheat (TRZAW) [5]; Metribuzin 25 g ai/ha): 0% | Effect (% visual injury) Obs ([1]; Metribuzin 25 g ai/ha, 20-22 d): 0% | Effect (% visual injury) Obs ([6]; Metribuzin 25 g ai/ha, 20-22 d): 0% | Effect (% visual injury) Obs ([7]; Metribuzin 25 g ai/ha, 20-22 d): 10% | Effect (% visual injury) Obs ([8]; Metribuzin 25 g ai/ha, 20-22 d): 0% | Effect (% visual injury) Obs ([10]; Metribuzin 25 g ai/ha, 20-22 d): 0% | Effect (% visual injury) Obs ([4]; Metribuzin 25 g ai/ha, 20-22 d): 10% | Effect (% visual injury) Obs (rice (ORYSA); ORYSA, Metribuzin 25 g ai/ha, postemergence, 20-22 d): 0% | Effect (% visual injury) Obs (corn (ZEAMX); Metribuzin 25 g ai/ha): 0%
